Results published in the SangsterLogP compilation.

Test: method code SF-AS, from DOI: 10.1002/(sici)1521-3897(199907)341:5<499::aid-prac499>3.0.co;2-7
Conditions: pH 7.4

logD | Compound
0.75 | Nc1nnnn1-c1ccc(F)cc1
0.67 | Nc1nnnn1-c1cccc([N+](=O)[O-])c1
1.41 | Nc1nnnn1-c1ccc(Cl)cc1
2.06 | Nc1nnnn1-c1ccc(Cl)c(Cl)c1
0.85 | COc1ccc(-n2nnnc2N)cc1
1.63 | Nc1nnnn1-c1ccc(Cl)cc1Cl
0.33 | Nc1nnnn1-c1ccc(O)cc1
1.72 | Nc1nnnn1-c1cccc2ccccc12
0.56 | Nc1nnnn1-c1cccc(O)c1
0.77 | Nc1nnnn1-c1ccc([N+](=O)[O-])cc1
1.61 | Nc1nnnn1-c1cc(Cl)ccc1Cl
0.69 | Nc1nnnn1-c1ccccc1
1.56 | Nc1nnnn1-c1c(Cl)cccc1Cl

More lines, now with the values behind:

Compound | logD
Nc1nnnn1-c1ccc(Br)cc1 | 1.64
Cc1ccc(C)c(-n2nnnc2N)c1 | 1.46
Nc1nnnn1-c1cccc(Cl)c1 | 1.44
Nc1nnnn1-c1ccccc1Cl | 0.87
COc1ccccc1-n1nnnc1N | 0.56
Cc1ccc(-n2nnnc2N)cc1Cl | 1.89
CCOc1ccc(-n2nnnc2N)cc1 | 1.32
Cc1cccc(-n2nnnc2N)c1 | 1.24
Cc1ccccc1-n1nnnc1N | 0.93
Nc1nnnn1-c1cc(Cl)c(Cl)cc1Cl | 2.3
Nc1nnnn1-c1ccc2ccccc2c1 | 2.08
